This note sets out measurements from patent US10994015B2, “EGFR proteolysis targeting chimeric molecules and associated methods of use” (Arvinas Operations, Inc., priority 2016, dated 2021).

A value given as a limit tells only on which side of the number the result lay.

Assay [1] concerns the target EGFR L858R/T790M/C797S triple mutant (H520*) (Homo sapiens (Human), UniProt P00533, C797S/L858R/T790M). Kind of assay: EGFR protein degradation assay (Western blot). The assay is classed as cell-based. To be noted: 72 hours, 300 nM to 10 nM. The essentials:
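EGFR loss in the triple-mutant line measured by immunoblot: clarified lysates normalised by BCA, run on 4-12% Bis-Tris gels, blotted to PVDF, probed with HRP anti-rabbit secondary. Before lysis, cells were dosed from 1, 0.3, 0.1, 0.03 and 0.01 mM DMSO stocks (not final concentrations) after overnight culture at 37° C.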

The next assay has as its target EGFR Exon20NPG (Homo sapiens (Human), UniProt P00533, INS770NPG). Kind of assay: TR-FRET assay for ERBB kinases. The assay is classed as biochemical. Particulars: geometric mean if measured more than once. In a few lines:
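Phosphorylation of fluorescein-labeled poly-GluTyr read as TR-FRET using Tb-pY20 antibody after EDTA stop, with 340 nm excitation. Kinase reaction ran 10 min at room temperature following 10 min compound pre-incubation; substrate mix held 3 mM ATP and 30 µM peptide before addition. Buffer was HEPES pH 7.5.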
On the technique in general: TR-FRET usually uses a lanthanide donor and a delayed reading to cut background.

The target of the next assay is EGFR L858R/T790M/C797S (Homo sapiens (Human), UniProt P00533, C797S/L858R/T790M). Kind of assay: TR-FRET assay for ERBB kinases. The assay is classed as biochemical. To be noted: geometric mean if measured more than once. The essentials: (§1)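 HEPES pH 7.5 buffer with 10 mM MgCl2 and 1 mM DTT; 10 min enzyme–compound pre-incubation. A 10 min room-temperature reaction was initiated by a mix carrying 3 mM ATP, stopped with EDTA, and detected by time-resolved FRET at 340 nm excitation.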

For the next assay, the target named is EGFR WT (Homo sapiens (Human), UniProt P00533). In words: TR-FRET assay for ERBB kinases. The assay is classed as biochemical. Particulars: geometric mean if measured more than once. In a few lines: as §1
Another assay concerns the target EGFR L858R/T790M (Homo sapiens (Human), UniProt P00533, L858R/T790M). In words: TR-FRET assay for ERBB kinases. The assay is classed as biochemical. To be noted: geometric mean if measured more than once. The essentials: as §1
Assay [2] has as its target EGFR L858R/T790M double mutant (H1975) (Homo sapiens (Human), UniProt P00533, L858R/T790M). Kind of assay: EGFR protein degradation assay (Western blot). The assay is classed as cell-based. To be noted: 72 hours, 300 nM to 10 nM. In a few lines:
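EGFR protein levels were measured by immunoblotting. Lysate protein was quantified by BCA, and 10 μg per sample was separated by SDS/PAGE at 165V for 2 hours and transferred to PVDF. Membranes were blocked in TBS-T with 5% milk for 1 hour, probed overnight at 4° C with EGFR and tubulin antibodies, then secondary antibody for 1 hour, and detected by ECL on a Chemidoc.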

The next assay deals with HER3 (Homo sapiens (Human), UniProt P21860). In words: TR-FRET assay for ERBB kinases. The assay is classed as biochemical. Particulars: geometric mean if measured more than once.
Chain of HER3 (P21860 20-1342, species assumed): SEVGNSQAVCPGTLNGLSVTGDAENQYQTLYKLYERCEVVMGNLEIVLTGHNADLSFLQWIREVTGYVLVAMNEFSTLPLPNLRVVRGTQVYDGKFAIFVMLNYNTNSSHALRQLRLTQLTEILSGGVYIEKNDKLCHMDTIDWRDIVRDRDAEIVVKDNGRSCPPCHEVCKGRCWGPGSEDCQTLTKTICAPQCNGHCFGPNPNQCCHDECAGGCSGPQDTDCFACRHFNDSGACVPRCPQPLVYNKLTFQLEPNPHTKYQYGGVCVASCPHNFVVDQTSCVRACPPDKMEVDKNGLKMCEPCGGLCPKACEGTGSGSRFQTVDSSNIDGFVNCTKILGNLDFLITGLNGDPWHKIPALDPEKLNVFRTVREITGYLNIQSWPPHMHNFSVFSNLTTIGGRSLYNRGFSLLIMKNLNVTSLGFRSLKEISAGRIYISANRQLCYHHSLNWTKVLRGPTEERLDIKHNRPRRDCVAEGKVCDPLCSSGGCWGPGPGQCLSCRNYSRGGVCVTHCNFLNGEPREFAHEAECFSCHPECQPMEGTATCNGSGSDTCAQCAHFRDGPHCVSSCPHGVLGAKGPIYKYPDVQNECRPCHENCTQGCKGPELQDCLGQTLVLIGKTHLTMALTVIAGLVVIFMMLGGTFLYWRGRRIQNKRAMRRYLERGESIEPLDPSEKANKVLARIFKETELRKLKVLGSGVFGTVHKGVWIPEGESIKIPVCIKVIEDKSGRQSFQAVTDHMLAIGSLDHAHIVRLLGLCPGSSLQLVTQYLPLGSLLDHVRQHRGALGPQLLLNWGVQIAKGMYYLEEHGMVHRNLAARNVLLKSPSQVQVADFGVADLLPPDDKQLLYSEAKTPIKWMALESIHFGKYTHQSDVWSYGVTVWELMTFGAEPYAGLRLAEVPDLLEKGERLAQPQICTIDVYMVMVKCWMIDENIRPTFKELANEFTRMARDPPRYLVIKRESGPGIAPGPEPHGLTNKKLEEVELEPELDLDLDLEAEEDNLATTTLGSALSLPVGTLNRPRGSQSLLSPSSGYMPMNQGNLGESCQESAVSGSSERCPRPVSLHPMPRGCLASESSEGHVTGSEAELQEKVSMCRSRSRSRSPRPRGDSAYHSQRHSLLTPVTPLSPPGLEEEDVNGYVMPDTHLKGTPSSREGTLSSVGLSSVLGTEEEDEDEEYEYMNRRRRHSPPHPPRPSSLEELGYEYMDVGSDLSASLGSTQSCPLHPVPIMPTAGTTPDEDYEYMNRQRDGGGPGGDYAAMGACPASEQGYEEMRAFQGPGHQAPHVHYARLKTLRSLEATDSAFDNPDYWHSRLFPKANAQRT
In the next assay the target is EGFR Exon 20 ASV (HeLa*) (Homo sapiens (Human), UniProt P00533, DUP767-769). Kind of assay: EGFR protein degradation assay (Western blot). The assay is classed as cell-based. Particulars: 72 hours, 300 nM to 10 nM. For orientation: A western blot detects proteins with antibodies after separation by electrophoresis.
The target in assay [3] is EGFR-wt (MDA-MB-231 or MCF7 or A549 or OVCAR8) (Homo sapiens (Human), UniProt P00533). In words: EGFR protein degradation assay (Western blot). The assay is classed as cell-based. Particulars: 72 hours, 300 nM to 10 nM. In a few lines: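 EGFR degradation was assessed by Western blot. Cells expressing the appropriate EGFR were seeded in 6-well plates (300,000 cells per well) and adhered overnight. Media was removed, cells were washed with cold phosphate-buffered saline, scraped into 400 μl Cell Signaling lysis buffer plus protease inhibitor cocktail, and spun once at 10 000 rpm for 10 minutes. After BCA quantification, loading buffer and reducing agent were added. Gels loaded with 10 μg protein ran at 165V for 2 hours, and bands were visualized by chemiluminescence.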

Chain of EGFR L858R/T790M double mutant (H1975) (P00533 25-1210 T790M/L858R): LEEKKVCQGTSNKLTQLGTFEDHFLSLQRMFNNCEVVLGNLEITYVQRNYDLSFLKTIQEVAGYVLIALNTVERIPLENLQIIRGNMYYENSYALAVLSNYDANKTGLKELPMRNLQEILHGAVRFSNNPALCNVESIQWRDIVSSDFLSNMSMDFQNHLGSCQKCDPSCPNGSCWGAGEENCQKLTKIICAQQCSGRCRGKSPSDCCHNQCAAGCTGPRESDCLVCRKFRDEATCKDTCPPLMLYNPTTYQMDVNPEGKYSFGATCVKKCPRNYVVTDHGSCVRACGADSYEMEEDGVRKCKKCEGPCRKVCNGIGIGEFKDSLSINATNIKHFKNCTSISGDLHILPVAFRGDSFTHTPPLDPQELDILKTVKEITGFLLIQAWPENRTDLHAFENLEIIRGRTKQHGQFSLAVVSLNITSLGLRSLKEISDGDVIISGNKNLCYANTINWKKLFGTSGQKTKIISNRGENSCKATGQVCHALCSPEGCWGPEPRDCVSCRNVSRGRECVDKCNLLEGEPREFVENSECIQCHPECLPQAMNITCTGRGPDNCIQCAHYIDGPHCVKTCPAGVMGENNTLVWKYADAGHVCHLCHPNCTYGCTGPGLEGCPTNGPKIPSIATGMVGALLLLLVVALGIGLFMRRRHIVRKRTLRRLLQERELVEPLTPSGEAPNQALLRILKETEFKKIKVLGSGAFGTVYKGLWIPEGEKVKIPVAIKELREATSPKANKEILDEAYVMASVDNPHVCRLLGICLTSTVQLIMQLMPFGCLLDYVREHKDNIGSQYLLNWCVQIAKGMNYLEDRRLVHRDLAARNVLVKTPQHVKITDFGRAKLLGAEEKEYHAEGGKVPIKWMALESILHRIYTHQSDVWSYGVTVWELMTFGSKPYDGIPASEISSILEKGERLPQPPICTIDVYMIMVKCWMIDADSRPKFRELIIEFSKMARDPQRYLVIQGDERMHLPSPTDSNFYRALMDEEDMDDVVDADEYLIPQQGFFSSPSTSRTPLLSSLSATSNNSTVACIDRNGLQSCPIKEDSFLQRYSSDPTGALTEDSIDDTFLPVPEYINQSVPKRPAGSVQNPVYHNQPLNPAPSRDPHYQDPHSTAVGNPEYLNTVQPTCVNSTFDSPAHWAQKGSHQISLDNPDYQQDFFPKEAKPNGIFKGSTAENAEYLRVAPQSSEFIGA
Chain of EGFR L858R/T790M (P00533 25-1210 T790M/L858R): as above
Chain of EGFR L858R/T790M/C797S triple mutant (H520*) (P00533 25-1210 T790M/C797S/L858R): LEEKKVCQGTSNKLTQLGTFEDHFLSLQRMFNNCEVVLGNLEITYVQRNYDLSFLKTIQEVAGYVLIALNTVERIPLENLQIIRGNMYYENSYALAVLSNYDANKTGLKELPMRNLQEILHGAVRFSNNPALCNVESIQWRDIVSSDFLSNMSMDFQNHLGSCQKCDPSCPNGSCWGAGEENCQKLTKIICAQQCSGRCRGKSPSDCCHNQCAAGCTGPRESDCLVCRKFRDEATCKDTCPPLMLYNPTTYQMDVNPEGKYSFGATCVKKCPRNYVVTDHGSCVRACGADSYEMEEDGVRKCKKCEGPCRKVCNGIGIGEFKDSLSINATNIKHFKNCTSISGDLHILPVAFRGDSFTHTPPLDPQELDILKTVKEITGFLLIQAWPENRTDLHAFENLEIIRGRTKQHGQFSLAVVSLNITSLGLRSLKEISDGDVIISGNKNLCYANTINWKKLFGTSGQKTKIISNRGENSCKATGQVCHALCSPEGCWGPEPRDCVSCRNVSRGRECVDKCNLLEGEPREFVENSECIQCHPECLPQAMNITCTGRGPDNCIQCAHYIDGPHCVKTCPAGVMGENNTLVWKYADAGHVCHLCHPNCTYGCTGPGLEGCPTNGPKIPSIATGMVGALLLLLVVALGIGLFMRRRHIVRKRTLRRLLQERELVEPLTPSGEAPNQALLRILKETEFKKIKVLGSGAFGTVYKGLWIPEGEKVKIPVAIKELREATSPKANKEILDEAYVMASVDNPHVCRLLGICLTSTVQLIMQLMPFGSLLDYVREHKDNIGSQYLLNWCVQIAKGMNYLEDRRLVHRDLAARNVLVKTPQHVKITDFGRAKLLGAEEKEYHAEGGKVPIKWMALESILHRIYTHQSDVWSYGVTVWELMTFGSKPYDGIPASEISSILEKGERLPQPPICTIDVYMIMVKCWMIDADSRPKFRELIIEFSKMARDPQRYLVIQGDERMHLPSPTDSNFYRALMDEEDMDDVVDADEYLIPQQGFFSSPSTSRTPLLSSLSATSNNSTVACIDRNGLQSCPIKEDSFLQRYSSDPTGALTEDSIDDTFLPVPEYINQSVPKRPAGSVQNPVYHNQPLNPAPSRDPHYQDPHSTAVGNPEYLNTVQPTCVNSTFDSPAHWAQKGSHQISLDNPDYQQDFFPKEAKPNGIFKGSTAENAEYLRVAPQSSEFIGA

Take `COC1CCN(c2nccc(Nc3cc4c(cn3)nc(COCCN3CCN(CCOc5ccc6c(c5)C(=O)N(C5CCC(=O)NC5=O)C6=O)CC3)n4C(C)C)n2)CC1` (stereo not drawn) [Example 76, 2-(2,6-dioxopiperidin-3-yl)-5-(2-(4-(2-((1-isopropyl-6-((2-(4-methoxypiperidin-1-yl)pyrimidin-4-yl)amino)-1H-imidazo[4,5-c]pyridin-2-yl)methoxy)ethyl)piperazin-1-yl)ethoxy)isoindoline-1,3-dione]: the “EGFR protein remaining, EGFR L858R/T790M/C797S triple mutant” value in [1] is reported as “C (>80% EGFR protein remaining after 72 hours of incubation with the test compound at a concentration of 300 nM)”. Besides, the IC50 at EGFR Exon20NPG was 14 µM; on EGFR L858R/T790M/C797S it was 0.036 µM; on EGFR WT it was 17 µM; on EGFR L858R/T790M it was 0.36 µM; at HER3, 8.6 µM. The “EGFR protein remaining, EGFR L858R/T790M double mutant” value in assay [2] is on record as “C (>80% EGFR protein remaining after 72 hours of incubation with the test compound at a concentration of 300 nM)”.
Turning to `COC1(CCN2CCN(c3ccc4c(c3)C(=O)N(C3CCC(=O)NC3=O)C4=O)CC2)CCN(c2nccc(Nc3cc4c(cn3)nc(C)n4C(C)C)n2)CC1` (stereo not drawn) [Example 78, 2-(2,6-dioxopiperidin-3-yl)-5-(4-(2-(1-(4-((1-isopropyl-2-methyl-1H-imidazo[4,5-c]pyridin-6-yl)amino)pyrimidin-2-yl)-4-methoxypiperidin-4-yl)ethyl)piperazin-1-yl)isoindoline-1,3-dione], in [1], the “EGFR protein remaining, EGFR L858R/T790M/C797S triple mutant” value is “C (>80% EGFR protein remaining after 72 hours of incubation with the test compound at a concentration of 300 nM)”. In addition, the IC50 on EGFR Exon20NPG worked out at 5.6 µM; at EGFR L858R/T790M/C797S, 0.025 µM; on EGFR WT, 5.7 µM; at EGFR L858R/T790M it was 0.25 µM; against HER3, 25 µM. Besides, the “EGFR protein remaining, EGFR L858R/T790M double mutant” value in assay [2] is given as “C (>80% EGFR protein remaining after 72 hours of incubation with the test compound at a concentration of 300 nM)”.
As for `Cc1ncsc1-c1ccc([C@H](C)NC(=O)[C@@H]2C[C@@H](O)CN2C(=O)[C@@H](NC(=O)CN2CCN(CCCC#Cc3cccc4c3C(=O)N(C(C(=O)Nc3nccs3)c3cc(F)ccc3O)C4)CC2)C(C)(C)C)cc1` (stereo partly drawn) [Example 80, (2S,4R)-1-((2S)-2-(2-(4-(5-(2-(1-(5-fluoro-2-hydroxyphenyl)-2-oxo-2-(thiazol-2-ylamino)ethyl)-3-oxoisoindolin-4-yl)pent-4-yn-1-yl)piperazin-1-yl)acetamido)-3,3-dimethylbutanoyl)-4-hydroxy-N—((S)-1-(4-(4-methylthiazol-5-yl)phenyl)ethyl)pyrrolidine-2-carboxamide], in assay [1], the “EGFR protein remaining, EGFR L858R/T790M/C797S triple mutant” value is “C (>80% EGFR protein remaining after 72 hours of incubation with the test compound at a concentration of 300 nM)”. Further, the half-maximal inhibitory concentration (IC50) at EGFR Exon20NPG is 13 µM; on EGFR L858R/T790M/C797S, 2.2 µM; at EGFR WT, 4.7 µM; on EGFR L858R/T790M, 4.7 µM; against HER3, more than 30 µM. Also, the “EGFR protein remaining, EGFR L858R/T790M double mutant” value in [2] is reported as “C (>80% EGFR protein remaining after 72 hours of incubation with the test compound at a concentration of 300 nM)”.
Regarding `Cc1ncsc1-c1ccc(CNC(=O)[C@@H]2C[C@@H](O)CN2C(=O)[C@@H](NC(=O)COCCOCCOc2ccc(-c3ccc4ncnc(Nc5ccc(OCc6cccc(F)c6)c(Cl)c5)c4c3)cc2)C(C)(C)C)cc1` [Example 97, (2S,4R)-1-((S)-2-(2-(2-(2-(4-(4-((3-Chloro-4-((3-fluorobenzyl)oxy)phenyl)amino)quinazolin-6-yl)phenoxy)ethoxy)ethoxy)acetamido)-3,3-dimethylbutanoyl)-4-hydroxy-N-(4-(4-methylthiazol-5-yl)benzyl)pyrrolidine-2-carboxamide], the IC50 was more than 30 µM at EGFR Exon20NPG; more than 30 µM at EGFR L858R/T790M/C797S; 1.5 µM on EGFR WT; more than 30 µM at EGFR L858R/T790M; 29 µM at HER3. The “EGFR protein remaining, EGFR Exon 20 ASV” value on EGFR Exon 20 ASV (HeLa*) is “A (≤50% EGFR protein remaining after 72 hours of incubation with the test compound at a concentration between 300 nM and 10 nM)”. Also, in assay [2], the “EGFR protein remaining, EGFR L858R/T790M double mutant” value was “B (≤80% and >50% EGFR protein remaining after 72 hours of incubation with the test compound at a concentration between 300 nM and 10 nM)”. Also, in assay [3], the “EGFR protein remaining, EGFR-wt” value was “A (≤50% EGFR protein remaining after 72 hours of incubation with the test compound at a concentration between 300 nM and 10 nM)”.
As for `COC1CCN(c2nccc(Nc3cc4c(cn3)nc(COCCOCC(=O)N[C@H](C(=O)N3C[C@@H](O)C[C@@H]3C(=O)N[C@@H](C)c3ccc(-c5scnc5C)cc3)C(C)(C)C)n4C(C)C)n2)CC1` [compound 77], the IC50 was 12 µM at EGFR Exon20NPG; 9.4 µM at EGFR L858R/T790M/C797S; 24 µM on EGFR WT; 9.1 µM on EGFR L858R/T790M; more than 30 µM at HER3. Also, the “EGFR protein remaining, EGFR L858R/T790M double mutant” value in [2] is on record as “C (>80% EGFR protein remaining after 72 hours of incubation with the test compound at a concentration of 300 nM)”.
On to `COC1CCN(c2nccc(Nc3cc4c(cn3)nc(COCCOCCOCCOCC(=O)N[C@H](C(=O)N3C[C@@H](O)C[C@@H]3C(=O)N[C@@H](C)c3ccc(-c5scnc5C)cc3)C(C)(C)C)n4C(C)C)n2)CC1` [compound 79], for which the IC50 at EGFR Exon20NPG is more than 30 µM; on EGFR L858R/T790M/C797S, 7.6 µM; on EGFR WT it was more than 30 µM; on EGFR L858R/T790M it was 29 µM; against HER3 it was more than 30 µM. The “EGFR protein remaining, EGFR L858R/T790M double mutant” value in assay [2] is given as “C (>80% EGFR protein remaining after 72 hours of incubation with the test compound at a concentration of 300 nM)”.
Take `O=C1CCC(N2C(=O)c3ccc(NCCOCCOCC#Cc4cccc5c4C(=O)N(C(C(=O)Nc4nccs4)c4cc(F)ccc4O)C5)cc3C2=O)C(=O)N1` (stereo not drawn) [compound 83]: the IC50 at EGFR Exon20NPG was more than 30 µM; at EGFR L858R/T790M/C797S, 1.2 µM; on EGFR WT, 3 µM; on EGFR L858R/T790M it was 2.5 µM; at HER3 it was more than 30 µM. In [2], the “EGFR protein remaining, EGFR L858R/T790M double mutant” value is given as “C (>80% EGFR protein remaining after 72 hours of incubation with the test compound at a concentration of 300 nM)”.
Take `Cc1ncsc1-c1ccc([C@H](C)NC(=O)[C@H]2C[C@H](O)CN2C(=O)[C@@H](NC(=O)COCCOCCOCC#Cc2cccc3c2C(=O)N(C(C(=O)Nc2nccs2)c2cc(F)ccc2O)C3)C(C)(C)C)cc1` (stereo partly drawn) [compound 84]: the IC50 on EGFR Exon20NPG was 5.3 µM; at EGFR L858R/T790M/C797S, 0.27 µM; on EGFR WT it was 1.8 µM; on EGFR L858R/T790M, 0.68 µM; on HER3, more than 30 µM. In addition, the “EGFR protein remaining, EGFR L858R/T790M double mutant” value in assay [2] is reported as “C (>80% EGFR protein remaining after 72 hours of incubation with the test compound at a concentration of 300 nM)”.
`COC1CCN(c2nccc(Nc3cc4c(cn3)nc(COCCCN3CCN(CCCOc5ccc6c(c5)C(=O)N(C5CCC(=O)NC5=O)C6=O)CC3)n4C(C)C)n2)CC1` (stereo not drawn) [compound 89]: the IC50 was more than 30 µM on EGFR Exon20NPG; 0.65 µM at EGFR L858R/T790M/C797S; more than 30 µM at EGFR WT; 1.6 µM on EGFR L858R/T790M; more than 30 µM at HER3. In addition, the “EGFR protein remaining, EGFR L858R/T790M double mutant” value in assay [2] is listed as “C (>80% EGFR protein remaining after 72 hours of incubation with the test compound at a concentration of 300 nM)”.
`Cc1ncsc1-c1ccc([C@H](C)NC(=O)[C@H]2C[C@H](O)CN2C(=O)[C@@H](NC(=O)CN2CCN(CCCOCC#Cc3cccc4c3C(=O)N(C(C(=O)Nc3nccs3)c3cc(F)ccc3O)C4)CC2)C(C)(C)C)cc1` (stereo partly drawn) [compound 90]: the “EGFR protein remaining, EGFR L858R/T790M/C797S triple mutant” value in assay [1] is on record as “C (>80% EGFR protein remaining after 72 hours of incubation with the test compound at a concentration of 300 nM)”. For the same compound, the IC50 at EGFR Exon20NPG amounted to 3.4 µM; on EGFR L858R/T790M/C797S, 0.69 µM; at EGFR WT, 1.3 µM; at EGFR L858R/T790M it was 0.74 µM; against HER3, 29 µM. For the same compound, the “EGFR protein remaining, EGFR L858R/T790M double mutant” value in [2] is “C (>80% EGFR protein remaining after 72 hours of incubation with the test compound at a concentration of 300 nM)”.

One may read the IC50 as the concentration needed to halve the response being measured.
